Where two headings read alike, the source gives them in different places.
Target: T1, delF508-CFTR (Homo sapiens, UniProt P13569, DEL508-508)
T1 construct: endogenous in cells; host or cells: CFBE41o- human CF bronchial epithelial cells (delF508 homozygous)
Test: SPQ halide-sensitive fluorescence dye assay for rescue of halide efflux (8-point concentration-response)
Assay type: cell-based
Conditions: for potency and efficacy compared with VX-809 in SPQ assay: versus VX-809
Procedure: The method of profiling can include detecting the rescue of halide efflux from a cell. The step of detecting a rescue of halide efflux from the cell can be monitored using the halide quenched dye 6-methoxy-N-(3-sulfopropyl)-quinolinium (SPQ, Molecular Probes Inc., Eugene, Oreg.). In this method, cells are treated with a compound as described herein for a period of time (e.g., 48 hours). The rescue or correction of halide efflux is then detected using the SPQ assay with the halide dye. […] Optionally, the halide efflux is chloride efflux. The method of screening can further comprise performing the method with multiple concentrations of the compound.
The compounds were initially subjected to the SPQ halide-sensitive fluorescence dye profiling assay for rescue or correction of membrane chloride ion permeability or transport with an 8-point concentration-response curve. The EC50 values for the compounds described herein were determined using SPQ (Table 1). The ΔSPQ value was calculated by determining the difference between the maximum and minimum SPQ values for the compounds.
To perform the SPQ high throughput screening assay, CFBE41o-cells were seeded into 96-well microtiter plates and were loaded with the fluorescent halide-sensitive dye, SPQ, in serum-containing culture medium. Certain wells were loaded with known positive control corrector molecules, including the industry standard Vertex 809 (VX-809; Vertex Pharmaceuticals, Cambridge, Mass.) at 3 μM, which is the maximally effective profiling dose for VX-809. The test compounds were loaded into wells and were tested in triplicate wells at a 10 μM dose and incubated over 48 hours at room temperature. During the 48 hour period, SPQ was absorbed. Plates were washed in a sodium chloride (NaCl) based Ringer and read once over two minutes to set the baseline SPQ fluorescence activity. Then, NaCl was replaced by sodium nitrate (NaNO3) based Ringer. The plates were read twice over four minutes. The primary high throughput screen (HTS) data were analyzed to detect any function of rescued delF508-CFTR under basal conditions. The plate was read up to two times to complete the SPQ HTS assay.

[1] = CFBE41o- cells, 48 h, read-out: SPQ EC50

T1 sequence (P13569 with tags, fused parts or gaps DEL508-508): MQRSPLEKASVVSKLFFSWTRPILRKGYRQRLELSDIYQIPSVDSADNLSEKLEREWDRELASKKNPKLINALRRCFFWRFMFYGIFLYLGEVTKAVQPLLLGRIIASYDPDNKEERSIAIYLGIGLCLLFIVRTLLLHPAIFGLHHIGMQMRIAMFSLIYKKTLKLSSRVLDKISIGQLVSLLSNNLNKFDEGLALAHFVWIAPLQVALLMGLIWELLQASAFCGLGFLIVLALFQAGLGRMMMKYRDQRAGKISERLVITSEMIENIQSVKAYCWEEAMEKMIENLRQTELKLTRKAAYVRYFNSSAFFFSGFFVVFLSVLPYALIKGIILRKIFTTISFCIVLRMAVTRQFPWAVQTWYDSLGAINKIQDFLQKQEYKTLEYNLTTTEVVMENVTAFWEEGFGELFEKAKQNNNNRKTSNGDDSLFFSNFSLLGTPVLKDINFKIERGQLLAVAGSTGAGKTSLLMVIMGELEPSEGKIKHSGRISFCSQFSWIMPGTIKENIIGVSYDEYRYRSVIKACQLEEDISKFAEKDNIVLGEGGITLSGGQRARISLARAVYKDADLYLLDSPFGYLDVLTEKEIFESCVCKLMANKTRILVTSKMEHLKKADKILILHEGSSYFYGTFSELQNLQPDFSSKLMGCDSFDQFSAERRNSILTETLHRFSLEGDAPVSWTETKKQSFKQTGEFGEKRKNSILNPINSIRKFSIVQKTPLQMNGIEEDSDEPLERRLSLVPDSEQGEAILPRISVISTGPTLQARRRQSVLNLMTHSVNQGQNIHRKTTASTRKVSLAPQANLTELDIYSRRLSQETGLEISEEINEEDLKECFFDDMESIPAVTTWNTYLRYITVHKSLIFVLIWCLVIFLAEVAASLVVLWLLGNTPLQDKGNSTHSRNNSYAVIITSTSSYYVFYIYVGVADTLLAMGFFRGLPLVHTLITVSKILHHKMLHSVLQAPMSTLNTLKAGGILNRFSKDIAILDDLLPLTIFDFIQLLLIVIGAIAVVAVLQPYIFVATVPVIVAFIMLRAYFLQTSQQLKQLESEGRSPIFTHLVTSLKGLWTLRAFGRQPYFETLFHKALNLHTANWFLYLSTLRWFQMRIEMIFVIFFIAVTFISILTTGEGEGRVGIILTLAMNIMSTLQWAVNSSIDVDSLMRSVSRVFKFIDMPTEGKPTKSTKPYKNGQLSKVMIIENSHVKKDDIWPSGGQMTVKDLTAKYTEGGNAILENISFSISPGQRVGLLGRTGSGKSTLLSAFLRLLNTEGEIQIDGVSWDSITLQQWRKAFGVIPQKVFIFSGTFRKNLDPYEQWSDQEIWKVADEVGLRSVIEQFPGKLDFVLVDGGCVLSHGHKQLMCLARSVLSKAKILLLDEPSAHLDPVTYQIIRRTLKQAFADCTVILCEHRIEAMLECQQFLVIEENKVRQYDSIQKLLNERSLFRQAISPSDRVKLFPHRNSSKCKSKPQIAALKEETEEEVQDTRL

Structure (SMILES) | ΔSPQ (difference between maximum and minimum SPQ values) (CFBE41o- cells, 48 h) [RFU] | EC50 [1] [µM] | SPQ EC50 (CFBE41o- cells, 48 h) | other results
CSc1nc(SCC(=O)O)c2sc3c(c2n1)COC(C)(C)C3 [Compound 2] | 4862 | 15.8 | – | –
Cc1cn2c3c(=O)n(C)c(=O)n(C)c3nc2n1-c1ccccc1O [Compound A-1] | – | – | No effect | –
Cc1cn2c3c(=O)n(C)c(=O)n(C)c3nc2n1-c1cccc(O)c1 [Compound A-2] | 4000 | 8.9 | – | potency and efficacy compared with VX-809 in SPQ assay: superior potency and efficacy to VX-809
Cc1cn2c3c(=O)n(C)c(=O)n(C)c3nc2n1-c1ccc(O)cc1 [Compound A-3] | 2100 | 6.5 | – | potency and efficacy compared with VX-809 in SPQ assay: superior potency and efficacy to VX-809
Cc1cn2c3c(=O)n(C)c(=O)n(C)c3nc2n1-c1ccccn1 [Compound A-4] | – | – | No effect | –
Cc1cn2c3c(=O)n(C)c(=O)n(C)c3nc2n1-c1cccnc1 [Compound A-5] | – | – | No effect | –
Cc1cn2c3c(=O)n(C)c(=O)n(C)c3nc2n1CCO [Compound A-7] | – | – | No effect | –
Cc1cn2c3c(=O)n(C)c(=O)n(C)c3nc2n1CCN(C)C [Compound A-8] | – | – | No effect | –
Cc1cn2c3c(=O)n(C)c(=O)n(C)c3nc2n1CC[N+](C)(C)C [Compound A-9] | – | – | No effect | –
Cc1cn2c3c(=O)n(C)c(=O)n(C)c3nc2n1CCN1CCOCC1 [Compound A-10] | – | – | No effect | –
Cn1c(=O)c2nc(N3CCOCC3)[nH]c2n(C)c1=O [Compound B-1] | – | 9.7 | – | –
Cn1c(=O)c2nc(N3CCNCC3)[nH]c2n(C)c1=O [Compound B-2] | – | – | No effect | –
Cn1c(=O)c2nc(N3CCN(c4ccccn4)CC3)[nH]c2n(C)c1=O [Compound B-3] | – | 10 | – | –
Cn1c(=O)c2[nH]c(N3CCN(c4ccncc4)CC3)nc2n(C)c1=O [Compound B-4] | – | – | No effect | –
Cn1c(=O)c2nc(N3CCN(c4ncccn4)CC3)[nH]c2n(C)c1=O [Compound B-5] | – | – | No effect | –
Cn1c(=O)c2[nH]c(N3CCN(c4ccc(O)cc4)CC3)nc2n(C)c1=O [Compound B-6] | – | – | No effect | –
COc1ccc(CN2CCN(c3nc4c(=O)n(C)c(=O)n(C)c4[nH]3)CC2)cc1 [Compound B-7.1] | 800 | 0.9 | – | potency and efficacy compared with VX-809 in SPQ assay: superior potency and efficacy to VX-809
COc1ccc(CN2CCN(c3nc4c(=O)n(C)c(=O)n(C)c4[nH]3)CC2)cc1OC [Compound B-7.2] | – | > 30 | – | –
CCOc1ccc(CN2CCN(c3nc4c(=O)n(C)c(=O)n(C)c4[nH]3)CC2)cc1 [Compound B-7.3] | – | 3.8 | – | –

Structure (SMILES) | ΔSPQ (difference between maximum and minimum SPQ values) (CFBE41o- cells, 48 h) [RFU] | EC50 [1] [µM] | SPQ EC50 (CFBE41o- cells, 48 h) | other results
CSc1ccc(CN2CCN(c3nc4c(=O)n(C)c(=O)n(C)c4[nH]3)CC2)cc1 [Compound B-7.4] | – | – | No effect to inhibitory | –
Cc1ccc(CN2CCN(c3nc4c(=O)n(C)c(=O)n(C)c4[nH]3)CC2)cc1 [Compound B-7.5] | – | – | No effect | –
Cn1c(=O)c2nc(N3CCN(Cc4ccc(OC(F)(F)F)cc4)CC3)[nH]c2n(C)c1=O [Compound B-7.6] | – | – | No effect | –
Cn1c(=O)c2nc(N3CCN(Cc4ccc(C(F)(F)F)cc4)CC3)[nH]c2n(C)c1=O [Compound B-7.7] | – | – | No effect | –
Cn1c(=O)c2nc(N3CCN(Cc4ccc5c(c4)OCCO5)CC3)[nH]c2n(C)c1=O [Compound B-7.8] | – | – | No effect | –
COc1ccccc1CN1CCN(c2nc3c(=O)n(C)c(=O)n(C)c3[nH]2)CC1 [Compound B-7.9] | 2800 | 3.2 | – | potency and efficacy compared with VX-809 in SPQ assay: superior potency and efficacy to VX-809
COc1cccc(CN2CCN(c3nc4c(=O)n(C)c(=O)n(C)c4[nH]3)CC2)c1 [Compound B-7.10] | 3750 | 7.1 | – | potency and efficacy compared with VX-809 in SPQ assay: superior potency and efficacy to VX-809
COc1ccc(C(=O)N2CCN(c3nc4c(=O)n(C)c(=O)n(C)c4[nH]3)CC2)cc1 [Compound B-7.12] | – | 6.2 | – | –
COc1ccc(N2CCN(c3nc4c([nH]3)c(=O)n(C)c(=O)n4C)CC2)cc1 [Compound B-7.17] | – | 3.5 | – | –
COCCCCN1CCN(c2nc3c(=O)n(C)c(=O)n(C)c3[nH]2)CC1 [Compound B-7.20] | – | – | No effect | –
Cn1c(=O)c2nc(N3CCN(Cc4ccc(O)cc4)CC3)[nH]c2n(C)c1=O [Compound B-7] | – | – | No effect | –
Cn1c(=O)c2nc(NCCO)[nH]c2n(C)c1=O [Compound B-8] | – | – | No effect | –
CN(C)CCNc1nc2c(=O)n(C)c(=O)n(C)c2[nH]1 [Compound B-9] | – | – | No effect | –
Cn1c(=O)c2[nH]c(NCCN)nc2n(C)c1=O [Compound B-11] | – | – | No effect | –
Cn1c(=O)c2[nH]c(NCCSc3ncccn3)nc2n(C)c1=O [Compound B-12] | – | – | No effect | –
Cn1c(=O)c2[nH]c(NCCNc3ccccn3)nc2n(C)c1=O [Compound B-13] | – | – | No effect | –
Cn1c(=O)c2nc(N3CCN(CCO)CC3)[nH]c2n(C)c1=O [Compound B-14] | – | – | No effect | –
Cn1c(=O)c2[nH]c(N3CCC(O)CC3)nc2n(C)c1=O [Compound B-15] | – | – | No effect | –
C=CCn1c(=O)c2c(nc3n(CCC)c(C)cn23)n(C)c1=O [Compound I-1] | 3801 | 17.8 | – | –

Structure (SMILES) | ΔSPQ (difference between maximum and minimum SPQ values) (CFBE41o- cells, 48 h) [RFU] | EC50 [1] [µM] | SPQ EC50 (CFBE41o- cells, 48 h) | other results
CCCCn1c(C)cn2c3c(=O)n(CCC)c(=O)n(C)c3nc12 [Compound I-2] | 3102 | – | – | EC50: > 30 µM
C/C=C/Cn1c(=O)c2c(nc3n(C(C)CC)c(C)cn23)n(C)c1=O (stereo not shown) [Compound I-3] | 5305 | > 30 | – | –
C=CCn1c(=O)c2c(nc3n(C(C)CC)c(C)c(C)n23)n(C)c1=O (stereo not shown) [Compound I-4] | 11108 | 5.4 | – | –
Cc1cccc(-n2c(C)c(C)n3c4c(=O)n(C)c(=O)n(C)c4nc23)c1 [Compound I-5] | 13531 | > 30 | – | –
CCn1c(=O)c2c(nc3n(-c4cccc(C)c4)c(C)c(C)n23)n(C)c1=O [Compound I-6] | 6023 | 8.9 | – | –
CCn1c(=O)c2c(nc3n(-c4ccc(F)cc4)c(C)c(C)n23)n(C)c1=O [Compound I-7] | 5779 | 10.1 | – | –
CCn1c(=O)c2c(nc3n(-c4ccc(C)cc4)c(C)c(C)n23)n(C)c1=O [Compound I-8] | 6975 | 3.6 | – | –
CCn1c(=O)c2c(nc3n(-c4ccc(C)cc4)c(C)cn23)n(C)c1=O [Compound I-9] | 3793 | 3.7 | – | –
CCn1c(=O)c2c(nc3n(-c4ccccc4)c(C)c(C)n23)n(C)c1=O [Compound I-10] | 4005 | 4 | – | –
Cc1ccc(C)c(Cn2c(=O)c3c(nc4[nH]c(C)c(C)n43)n(C)c2=O)c1 [Compound I-11] | 3705 | > 30 | – | –
CCCn1c(C)cn2c3c(=O)n(Cc4ccccc4)c(=O)n(C)c3nc12 [Compound I-12] | 6259 | > 30 | – | –
Cc1cc(C)cc(-n2c(C)cn3c4c(=O)n(C)c(=O)n(C)c4nc23)c1 [Compound I-13] | 6131 | 9 | – | –
CCCn1c(=O)c2c(nc3n(-c4ccccc4C)c(C)cn23)n(C)c1=O [Compound I-14] | 8875 | 18.9 | – | –
C=CCn1c(=O)c2c(nc3n(-c4cccc(C)c4)c(C)c(C)n23)n(C)c1=O [Compound I-15] | 5708 | 6.1 | – | –
C=CCn1c(C)cn2c3c(=O)n(Cc4ccccc4C)c(=O)n(C)c3nc12 [Compound I-16] | 6996 | 17.7 | – | –
CCCn1c(=O)c2c(nc3n(-c4ccccc4OC)c(C)c(C)n23)n(C)c1=O [Compound I-17] | 3733 | 8.8 | – | –
CCCn1c(=O)c2c(nc3n(-c4ccccc4O)c(C)c(C)n23)n(C)c1=O [Compound I-18] | 5235 | 7.1 | – | –
C/C=C/Cn1c(=O)c2c(nc3n(-c4ccccc4O)c(C)c(C)n23)n(C)c1=O [Compound I-19] | 2058 | 3.2 | – | –
C=CCn1c(=O)c2c(nc3n(-c4ccccc4C)c(C)c(C)n23)n(C)c1=O [Compound I-20] | 9362 | 3.8 | – | –
